Data on 15 molecules can be found in PubChem BioAssay AID192 (DTP/NCI, 2004).

Several values for one entry are separate records, joined by “and”; a condition that tells them apart may be missing. Identical values can stand only once. Inconclusive results and toxic doses are left out. Numbered stars: 1 amine (or outer) side, 2 acyl side, 3 side chain; on linkers, the order of the positions; unused ones are H or OH. Bridge positions count the residues as written; N and C are the ends. Square brackets hold non-standard residues; d marks the D form. Peptide text beside a SMILES is read from it. I, II: the chains in the order shown. Actinocin(1to9) = Cc1c2oc3c(C)ccc(C(=O)[*:2])c3nc-2c(C(=O)[*:1])c(N)c1=O; NMeV = CN[CH](C(=O)O)C(C)C; Aze = O=C(O)[CH]1CCN1; Sar = CNCC(=O)O

The assay deals with BDF1 mice, B16 melanoma ip, median survival T/C. Description: NCI In Vivo Anticancer Drug Screen. Data for tumor model B16 Melanoma (intraperitoneal) in B6D2F1 (BDF1) mice. The conditions noted are these: endpoint: median survival time, higher = longer survival. The method in brief:
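Transplantable tumor model; survival or tumor size measured; reported as T/C, treated over vehicle control.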

The mark [1] stands for this setting: dose: 100.0 mg/kg/injection, schedule: Q01DX009 (ip), vehicle: Klucel (hydroxypropylcellulose) (HPC).
[2] abbreviates: dose: 200.0 mg/kg/injection, schedule: Q01DX009 (ip), vehicle: Klucel (hydroxypropylcellulose) (HPC).
Setting [3] is: dose: 400.0 mg/kg/injection, schedule: Q01DX009 (ip), vehicle: Klucel (hydroxypropylcellulose) (HPC).
Where [4] appears, read: dose: 12.5 mg/kg/injection, schedule: Q01DX009 (ip), vehicle: saline with Tween-80.
Setting [5] is: dose: 25.0 mg/kg/injection, schedule: Q01DX009 (ip), vehicle: saline with Tween-80.
[6] abbreviates: dose: 50.0 mg/kg/injection, schedule: Q01DX009 (ip), vehicle: saline with Tween-80.
Setting [7] is: dose: 100.0 mg/kg/injection, schedule: Q01DX009 (ip), vehicle: saline with Tween-80.
Where [8] appears, read: dose: 200.0 mg/kg/injection, schedule: Q01DX009 (ip), vehicle: saline with Tween-80.
[9] abbreviates: dose: 25.0 mg/kg/injection, schedule: Q01DX009 (ip), vehicle: saline.
Where [10] appears, read: dose: 50.0 mg/kg/injection, schedule: Q01DX009 (ip), vehicle: saline.
[11] abbreviates: dose: 100.0 mg/kg/injection, schedule: Q01DX009 (ip), vehicle: saline.
[12] abbreviates: dose: 200.0 mg/kg/injection, schedule: Q01DX009 (ip), vehicle: saline.

As for `[Cl][Pt+2][Cl].[NH-]CC1(C[NH-])CCCC1`, the T/C reads like this: (dose: 0.5 mg/kg/injection, schedule: Q01DX009 (ip), vehicle: saline) 124 % of control; (dose: 1.0 mg/kg/injection, schedule: Q01DX009 (ip), vehicle: saline) 112 % of control; (dose: 2.0 mg/kg/injection, schedule: Q01DX009 (ip), vehicle: saline) 157 % of control.
Take `CCN(C)N=Nc1ccc(C(N)=O)cc1`: the T/C by setting is: (dose: 25.0 mg/kg/injection, schedule: Q01DX009 (ip), vehicle: Klucel (hydroxypropylcellulose) (HPC)) 104 % of control; (dose: 50.0 mg/kg/injection, schedule: Q01DX009 (ip), vehicle: Klucel (hydroxypropylcellulose) (HPC)) 112 % of control.
Turning to `CCC(C)(C)c1ccc(O)c(C(C)(C)CC)c1`, the T/C was 93 % of control under setting [1], 106 % of control under setting [2] and 106 % of control under setting [3].
With `COc1ccc(Cl)cc1NC(=O)C(Br)C(Br)C(=O)O` (centres undefined), the T/C under setting [4] is 102 % of control; the T/C under setting [5] is 105 % of control; the T/C under setting [6] is 95 % of control; the T/C under setting [7] was 89 % of control; the T/C under setting [8] was 91 % of control.
On to `NC(=O)C1(N2CCCCC2)CCN(CCCC(=O)c2ccc(F)cc2)CC1`, for which the T/C is 108 % of control (dose: 6.25 mg/kg/injection, schedule: Q01DX009 (ip), vehicle: saline); 108 % of control (dose: 12.5 mg/kg/injection, schedule: Q01DX009 (ip), vehicle: saline); 113 % of control under setting [9]; 105 % of control under setting [10]; 105 % of control under setting [11].
With `CC(C)COC(=O)c1ccc(NC(=O)Nc2ccccc2Cl)cc1`, the T/C was 100 % of control under setting [4], 93 % of control under setting [5] and 97 % of control under setting [6].
As to `CC(=O)CC(=O)N1CCN(C(=O)CC(C)=O)CC1`, the T/C was 87 % of control under setting [11]; 87 % of control under setting [12]; 91 % of control (dose: 400.0 mg/kg/injection, schedule: Q01DX009 (ip), vehicle: saline).
`CCCCNC(C)(C)C1(c2ccc(Cl)cc2)SSC(c2ccc(Cl)cc2)(C(C)(C)NCCCC)SS1` (centres undefined): the T/C by setting is: (dose: 10.0 mg/kg/injection, schedule: Q01DX009 (ip), vehicle: Klucel (hydroxypropylcellulose) (HPC)) 94 % of control; (dose: 20.0 mg/kg/injection, schedule: Q01DX009 (ip), vehicle: Klucel (hydroxypropylcellulose) (HPC)) 89 % of control; (dose: 40.0 mg/kg/injection, schedule: Q01DX009 (ip), vehicle: Klucel (hydroxypropylcellulose) (HPC)) 86 % of control.
For the molecule `CCOC(=O)C(=O)C(C#N)C(=O)OCC` (centres undefined), the T/C was 88 % of control (dose: 3.12 mg/kg/injection, schedule: Q01DX009 (ip), vehicle: Klucel (hydroxypropylcellulose) (HPC)); 109 % of control (dose: 6.25 mg/kg/injection, schedule: Q01DX009 (ip), vehicle: Klucel (hydroxypropylcellulose) (HPC)); 100 % of control (dose: 8.2 mg/kg/injection, schedule: Q01DX009 (ip), vehicle: Klucel (hydroxypropylcellulose) (HPC)); 96 % of control and 100 % of control (dose: 12.5 mg/kg/injection, schedule: Q01DX009 (ip), vehicle: Klucel (hydroxypropylcellulose) (HPC)); 96 % of control and 105 % of control (dose: 18.0 mg/kg/injection, schedule: Q01DX009 (ip), vehicle: Klucel (hydroxypropylcellulose) (HPC)).
As to `O=C(CCCN1CCC2(CC1)C(=O)NCN2c1ccccc1)c1ccc(F)cc1`, the T/C runs as follows: (dose: 0.39 mg/kg/injection, schedule: Q01DX009 (ip), vehicle: saline) 92 % of control; (dose: 0.78 mg/kg/injection, schedule: Q01DX009 (ip), vehicle: saline) 89 % of control; (dose: 1.56 mg/kg/injection, schedule: Q01DX009 (ip), vehicle: saline) 94 % of control.
On to `O=C1N(CC2CO2)CCN1CC1CO1` (centres undefined), for which the T/C is, setting by setting: (dose: 12.5 mg/kg/injection, schedule: Q01DX009 (ip), vehicle: suspension in saline) 106 % of control; (dose: 25.0 mg/kg/injection, schedule: Q01DX009 (ip), vehicle: suspension in saline) 124 % of control; (dose: 100.0 mg/kg/injection, schedule: Q01DX009 (ip), vehicle: suspension in saline) 193 % of control.
Take `Cc1c2oc3c(C)ccc(C(=O)NC4C(=O)NC(C(C)C)C(=O)N5CCCC5C(=O)N(C)CC(=O)N(C)C(C(C)C)C(=O)OC4C)c3nc-2c(C(=O)NC2C(=O)NC(C(C)C)C(=O)N3CCC3C(=O)N(C)CC(=O)N(C)C(C(C)C)C(=O)OC2C)c(N)c1=O` (centres undefined) (I: TV[Aze][Sar][NMeV] / II: TVP[Sar][NMeV]; ester I:1-I:C, II:1-II:C; linker I:N-II:N via Actinocin(1to9); configuration not given here): the T/C is 172 % of control (dose: 0.23 mg/kg/injection, schedule: Q01DX009 (ip), vehicle: saline + alcohol); 163 % of control (dose: 0.3 mg/kg/injection, schedule: Q04DX003 (ip), vehicle: saline + alcohol); 107 % of control (dose: 19.4 micrograms/kg/injection, schedule: Q01DX009 (ip), vehicle: saline + alcohol); 182 % of control (dose: 37.0 micrograms/kg/injection, schedule: Q01DX009 (ip), vehicle: saline + alcohol); 156 % of control and 190 % of control (dose: 75.0 micrograms/kg/injection, schedule: Q01DX009 (ip), vehicle: saline + alcohol); 151 % of control (dose: 100.0 micrograms/kg/injection, schedule: Q01DX009 (ip), vehicle: saline + alcohol). Further, the T/C is, setting by setting: (dose: 150.0 micrograms/kg/injection, schedule: Q01DX009 (ip), vehicle: saline + alcohol) 159 % of control; (dose: 250.0 micrograms/kg/injection, schedule: Q01DX009 (ip), vehicle: saline + alcohol) 153 % of control.
In the case of `N#CCCN(CCC#N)c1ccc(C=O)cc1`, the T/C runs as follows: under setting [1], 104 % of control; under setting [2], 98 % of control; under setting [3], 102 % of control.
In the case of `Cc1c2ccncc2c(C)c2c1[nH]c1ccccc12`, the T/C by setting is: (dose: 1.25 mg/kg/injection, schedule: Q01DX009 (ip), vehicle: saline) 109 % of control; (dose: 1.25 mg/kg/injection, schedule: Q01DX009 (ip), vehicle: water) 102 % of control; (dose: 2.5 mg/kg/injection, schedule: Q01DX009 (ip), vehicle: saline) 113 % of control; (dose: 2.5 mg/kg/injection, schedule: Q01DX009 (ip), vehicle: water) 103 % of control and 110 % of control; (dose: 5.0 mg/kg/injection, schedule: Q01DX009 (ip), vehicle: saline) 120 % of control; (dose: 5.0 mg/kg/injection, schedule: Q01DX009 (ip), vehicle: water) 110 % of control and 114 % of control. In addition, the T/C was 106 % of control (dose: 8.0 mg/kg/injection, schedule: Q01DX005 (iv), vehicle: saline with Tween-80); 117 % of control and 121 % of control (dose: 12.5 mg/kg/injection, schedule: Q04DX003 (ip), vehicle: distilled water + Tween-80); 171 % of control (dose: 16.0 mg/kg/injection, schedule: Q01DX005 (ip), vehicle: saline with Tween-80); 110 % of control (dose: 16.0 mg/kg/injection, schedule: Q01DX005 (iv), vehicle: saline with Tween-80); 110 % of control (dose: 16.0 mg/kg/injection, schedule: Q01DX005 (oral), vehicle: saline with Tween-80); 119 % of control (dose: 25.0 mg/kg/injection, schedule: Q04DX003 (ip), vehicle: distilled water + Tween-80). Also, the T/C was 191 % of control (dose: 32.0 mg/kg/injection, schedule: Q01DX005 (ip), vehicle: saline with Tween-80); 108 % of control (dose: 32.0 mg/kg/injection, schedule: Q01DX005 (oral), vehicle: saline with Tween-80); 154 % of control (dose: 50.0 mg/kg/injection, schedule: Q04DX003 (ip), vehicle: Klucel (hydroxypropylcellulose) (HPC)); 117 % of control (dose: 64.0 mg/kg/injection, schedule: Q01DX005 (oral), vehicle: saline with Tween-80); 153 % of control (dose: 100.0 mg/kg/injection, schedule: Q04DX003 (ip), vehicle: distilled water + Tween-80).
As to `CCC(C)(CC)OC(N)=O`, the T/C was 112 % of control under setting [5]; 95 % of control under setting [9]; 112 % of control under setting [6]; 95 % of control under setting [10]; 105 % of control under setting [7]; 100 % of control under setting [11]. Also, the T/C under setting [8] is 104 % of control and the T/C under setting [12] was 95 % of control.
